Assay results as given in patent US8822455B2, “Fused aminodihydrothiazine derivatives” (Eisai R&D Management Co., Ltd., priority 2011, dated 2014).

Test system: Aβ42
Experiment: In vitro cellular assay (Aβ42): quantification of Aβ peptide in culture of neurons from rat fetus brain (ELISA)
Assay type: cell-based
Conditions: Primary cortical neuron, 72 h, rat primary cortical neurons (embryonic day 18 Wistar), 3 days after addition of compound, read-out: Cell IC50
Description: In vitro Cellular Assay (Aβ42):
Quantification of AβPeptide in Culture of Neurons from Rat Fetus Brain
(1) Rat Primary Neuronal Culture
Primary neuronal cultures were prepared from the cerebral cortex of embryonic day 18 Wistar rats (Charles River, UK). Specifically, the embryos were aseptically removed from pregnant rats under ether anesthesia. The brain was isolated from the embryo and immersed in HBSS (Sigma Aldrich #H9269) containing 10 mM HEPES (Gibco #15630-056). The cerebral cortex was collected from the isolated brain under a stereoscopic microscope. The cerebral cortex fragments collected were enzymatically treated in an enzyme solution containing 0.05% trypsin-EDTA solution (GIBCO, #25300) at 37° C. for 20 minutes to disperse the cells. The cells were then washed twice and then gently resuspended in Neurobasal medium (Gibco #21103) supplemented with 2% B27 supplement (GIBCO #17504-044), 0.5 mM L-glutamine (GIBCO #25030), 1×N2 (GIBCO #17502-048), 100 ug/ml Pen/Strep (GIBCO 15140-122) and 5% heat inactivated FCS (PAA #A15-701). The cell dispersion was filtered through a 40-μm nylon mesh (BD Falcon #352340) to remove the remaining cell mass, and thus a neuronal cell suspension was obtained. The neuronal cell suspension was diluted with the medium above and then plated in a volume of 100 μL/well at an initial cell density of 3.25×10^5 cells/ml in poly-D-lysine coated 96-well culture plate (Greiner #655940). The plated cells were cultured in the culture plate at 37° C. in 5% CO2-95% air for 24 hrs. The total amount of the medium was replaced with ‘assay Neurobasal medium’ (as above excluding heat inactivated FCS), and then the cells were cultured for a further five days.
The drug was added to the culture plate on Day 6 of culture as follows. 8 point compound serial dilutions were generated in DMSO at a concentration of ×1000 that of the final assay concentration (FAC). Compound solutions were then prepared by adding 999 ul of ‘Assay Neurobasal media’ (as described in above section) to 1 ul of DMSO compound stock. The total amount of the medium was removed from each of the cell plate wells, and 200 μL/well of compound solution was added. The final DMSO concentration was 0.1%.
The cells were cultured for either 1 or 3 days after addition of the compound for ABx-40 and ABx-42 assays respectively. 150 μl of sample medium was collected and used as the ELISA sample.
Human/Rat β Amyloid (42) ELISA Kit Wako (#290-62601) and Human/Rat β Amyloid (40) ELISA Kit Wako (#294-62501) from Wako Pure Chemical Industries, Ltd. were used for Aβ ELISA Aβ ELISA was carried out according to the protocols recommended by the manufacturers, described in the documents accompanying the kits. The results were shown as percentage of the control groups and IC50 values for each compound were determined using four parameter logistic fit model using the XLFIT5 software package (IDBS).

Compound	IC50 [nM]
C[C@H]1OC[C@]2(c3cc(-c4cncnc4)ccc3F)N=C(N)SC[C@H]12 [Example 1, (4aS,5R,7aS)-7a-(2-Fluoro-5-(pyrimidin-5-yl)phenyl)-5-methyl-4a,5,7,7a-tetrahydro-4H-furo[3,4-d][1,3]thiazin-2-amine]	65
C[C@H]1OC[C@]2(c3cc(-c4ccnn4C)ccc3F)N=C(N)SC[C@H]12 [Example 20, (4aS,5R,7aS)-7a-(2-fluoro-5-(1-methyl-1H-pyrazol-5-yl)phenyl)-5-methyl-4a,5,7,7a-tetrahydro-4H-furo[3,4-d]thiazin-2-amine]	> 1000
C[C@H]1OC[C@]2(c3cc(-c4cccnc4F)ccc3F)N=C(N)SC[C@H]12 [Example 7, (4aS,5R,7aS)-7a-(2-Fluoro-5-(2-fluoropyridin-3-yl)phenyl)-5-methyl-4a,5,7,7a-tetrahydro-4H-furo[3,4-d][1,3]thiazin-2-amine]	62
C[C@H]1OC[C@]2(c3cc(-c4cccnn4)ccc3F)N=C(N)SC[C@H]12 [Example 23, (4aS,5R,7aS)-7a-(2-fluoro-5-(pyridazin-3-yl)phenyl)-5-methyl-4a,5,7,7a-tetrahydro-4H-furo[3,4-d][1,3]thiazin-2-amine]	572
C[C@H]1OC[C@]2(c3cc(-c4cncnc4)c(F)cc3F)N=C(N)SC[C@H]12 (relative stereo) [Example 31, (4aS*,5R*,7aS*)-7a-(2,4-Difluoro-5-(pyrimidin-5-yl)phenyl)-5-methyl-4a,5,7,7a-tetrahydro-4H-furo[3,4-d][1,3]thiazin-2-amine]	20
C[C@H]1OC[C@]2(c3cc(-c4cncc(C(F)(F)F)c4)ccc3F)N=C(N)SC[C@H]12 [Example 14, (4aS,5R,7aS)-7a-(2-Fluoro-5-(5-(trifluoromethyl)pyridine-3-yl)phenyl)-5-methyl-4a,5,7,7a-tetrahydro-4H-furo[3,4-d][1,3]thiazin-2-amine]	136
C[C@H]1OC[C@]2(c3cc(-c4ncc[nH]4)ccc3F)N=C(N)SC[C@H]12 [Example 2, (4aS,5R,7aS)-7a-(2-Fluoro-5-(1H-imidazo-2-yl)phenyl)-5-methyl-4a,5,7,7a-tetrahydro-4H-furo[3,4-d][1,3]thiazin-2-amine]	749
Cc1cnc(F)c(-c2ccc(F)c([C@]34CO[C@H](C)[C@H]3CSC(N)=N4)c2)c1 [Example 16, (4aS,5R,7aS)-7a-(2-fluoro-5-(2-fluoro-5-methylpyridin-3-yl)phenyl)-5-methyl-4a,5,7,7a-tetrahydro-4H-furo[3,4-d][1,3]thiazin-2-amine]	58
COc1cncc(-c2ccc(F)c([C@]34CO[C@H](C)[C@H]3CSC(N)=N4)c2)c1 [Example 8, (4aS,5R,7aS)-7a-(2-fluoro-5-(5-methoxypyridin-3-yl)phenyl)-5-methyl-4a,5,7,7a-tetrahydro-4H-furo[3,4-d][1,3]thiazin-2-amine]	23
NC1=N[C@@]2(c3cc(-c4cccnc4F)c(F)cc3F)CO[C@H](CF)[C@H]2CS1 [Example 28]	46
Cc1cncc(-c2ccc(F)c([C@]34CO[C@H](C)[C@H]3CSC(N)=N4)c2)c1 [Example 15, (4aS,5R,7aS)-7a-(2-Fluoro-5-(5-methylpyridin-3-yl)phenyl)-5-methyl-4a,5,7,7a-tetrahydro-4H-furo[3,4-d][1,3]thiazin-2-amine]	101
C[C@H]1OC[C@]2(c3cc(-c4ccc(F)nc4)ccc3F)N=C(N)SC[C@H]12 [Example 10, (4aS,5R,7aS)-7a-(2-Fluoro-5-(6-fluoropyridin-3-yl)phenyl)-5-methyl-4a,5,7,7a-tetrahydro-4H-furo[3,4-d][1,3]thiazin-2-amine]	94
NC1=N[C@@]2(c3cc(-c4ccc(F)nc4)c(F)cc3F)CO[C@H](CF)[C@H]2CS1 [Example 30, (4aS,5S,7aS)-7a-(2,4-difluoro-5-(6-fluoropyridin-3-yl)phenyl)-5-(fluoromethyl)-4a,5,7,7a-tetrahydro-4H-furo[3,4-d][1,3]thiazin-2-amine]	223
COc1cncc(-c2cc([C@]34CO[C@H](CF)[C@H]3CSC(N)=N4)c(F)cc2F)c1 [Example 29, (4aS,5S,7aS)-7a-(2,4-difluoro-5-(5-methoxypyridin-3-yl)phenyl)-5-(fluoromethyl)-4a,5,7,7a-tetrahydro-4H-furo[3,4-d][1,3]thiazin-2-amine]	15
COc1cccc(-c2ccc(F)c([C@]34CO[C@H](C)[C@H]3CSC(N)=N4)c2)n1 [Example 24, (4aS,5R,7aS)-7a-(2-fluoro-5-(6-methoxypyridin-2-yl)phenyl)-5-methyl-4a,5,7,7a-tetrahydro-4H-furo[3,4-d][1,3]thiazin-2-amine]	> 1000
CC#Cc1cncc(-c2ccc(F)c([C@]34CO[C@H](C)[C@H]3CSC(N)=N4)c2)c1 [Example 19, (4aS,5R,7aS)-7a-(2-fluoro-5-(5-(prop-1-yn-1-yl)pyridin-3-yl)phenyl)-5-methyl-4a 5,7,7a-tetrahydro-4H-furo[3,4-d][1,3]thiazin-2-amine]	17
COc1ccc(-c2ccc(F)c([C@]34CO[C@H](C)[C@H]3CSC(N)=N4)c2)cn1 [Example 11, (4aS,5R,7aS)-7a-(2-Fluoro-5-(6-methoxypyridin-3-yl)phenyl)-5-methyl-4a,5,7,7a-tetrahydro-4H-furo[3,4-d][1,3]thiazin-2-amine]	839
C[C@H]1OC[C@]2(c3cc(-c4ccccc4F)ccc3F)N=C(N)SC[C@H]12 [Example 6, (4aS,5R,7aS)-7a-(2′,4-difluoro-[1,1′-biphenyl]-3-yl)-5-methyl-4a,5,7,7a-tetrahydro-4H-furo[3,4-d][1,3]thiazin-2-amine]	244
C[C@H]1OC[C@]2(c3cc(-c4cnc(-c5cnccn5)[nH]4)ccc3F)N=C(N)SC[C@H]12 [Example 3, (4aS,5R,7aS)-7a-(2-fluoro-5-(2-(pyrazin-2-yl)-1H-imidazol-5-yl)phenyl)-5-methyl-4a,5,7,7a-tetrahydro-4H-furo[3,4-d][1,3]thiazin-2-amine]	69
C[C@H]1OC[C@]2(c3cc(-c4cncc(OC5CC5)c4)ccc3F)N=C(N)SC[C@H]12 [Example 21, (4aS,5R,7aS)-7a-(5-(5-cyclopropoxypyridin-3-yl)-2-fluorophenyl)-5-methyl-4a,5,7,7a-tetrahydro-4H-furo[3,4-d][1,3]thiazin-2-amine]	127
Cc1ncccc1-c1ccc(F)c([C@]23CO[C@H](C)[C@H]2CSC(N)=N3)c1 [Example 18, (4aS,5R,7aS)-7a-(2-fluoro-5-(2-methylpyridin-3-yl)phenyl)-5-methyl-4a,5,7,7a-tetrahydro-4H-furo[3,4-d][1,3]thiazin-2-amine]	217
C[C@H]1OC[C@]2(c3cc(-c4cncc(C#N)c4)ccc3F)N=C(N)SC[C@H]12 [Example 13, 5-(3-((4aS,5R,7aS)-2-Amino-5-methyl-4a,5,7,7a-tetrahydro-4H-furo[3,4-d][1,3]thiazin-7a-yl)-4-fluorophenyl)nicotinonitrile]	62
C[C@H]1OC[C@]2(c3cc(-c4ccccc4)ccc3F)N=C(N)SC[C@H]12 [Example 5, (4aS,5R,7aS)-7a-(4-Fluoro-[1,1′-biphenyl]-3-yl)-5-methyl-4a,5,7,7a-tetrahydro-4H-furo[3,4-d][1,3]thiazin-2-amine]	450
C[C@H]1OC[C@]2(c3cc(-c4cccc(=O)[nH]4)ccc3F)N=C(N)SC[C@H]12 [Example 25, 6-(3-((4aS,5R,7aS)-2-amino-5-methyl-4a,5,7,7a-tetrahydro-4H-furo[3,4-d][1,3]thiazin-7a-yl)-4-fluorophenyl)pyridin-2(1H)-one]	342
C[C@H]1OC[C@]2(c3cc(-c4cncc(OC(F)F)c4)ccc3F)N=C(N)SC[C@H]12 [Example 26]	64
C[C@H]1OC[C@]2(c3cc(-c4cc(F)ccc4F)ccc3F)N=C(N)SC[C@H]12 [Example 12, (4aS,5R,7aS)-5-Methyl-7a-(2′,4,5′-trifluoro-[1,1′-biphenyl]-3-yl)-4a,5,7,7a-tetrahydro-4H-furo[3,4-d][1,3]thiazin-2-amine]	114
